{"source": "patent US20030162759A1", "about": "“Aldosterone blocker therapy to prevent or treat inflammation-related disorders” (priority 2000, published 2003)", "type_in_all_cases": "in vivo, rat", "key": {"interstitial collagen": {"system": "interstitial collagen", "test": "Assay C: interstitial collagen volume fraction (Picrosirius Red image analysis)", "settings": "for Collagen Volume Fraction (%), Mean: group mean; for Interstitial Collagen Volume Fraction: Table 9.14, 7-day protocol; for ICVF (interstitial collagen volume fraction): eplerenone 100 mg/kg/day", "description": "The procedure of Assay B was expanded upon in a further study. […] Myocardial tissue from animals in each treatment group was examined after 7, 14, or 30 days of treatment. […] Lesions were preceded by the expression and progressive upregulation of proinflammatory molecules. […] Prior to surgery the animals were individually weighed and placed in one of the following groups: […] Potassium chloride supplementation was added to the saline solution in order to prevent the potential hypokalemia associated with aldosterone excess. […] Louis, Mo.) was inserted subcutaneously at the nape of the neck. Aldosterone was administered at a dose of […]. […] Animals were sacrificed from each group (n=8-13) after 7, 14, or 30 days of treatment. The equatorial regions of the heart were routinely processed into paraffin with an automated tissue processor (Hypercenter XP, Shandon/Lipshaw Inc., Pittsburgh, Pa.) and embedded into fresh paraffin apical side down (Shandon Embedding Center, Shandon/Lipshaw Inc.). […] Ten m sections were stained with the collagen specific stain, Picrosirius Red F3BA (Saturated Picric Acid (Sigma Chemical, St. […] Waterbury, Conn.) (6). Mounted tissues were hydrated with water. […] Slides were coverslipped with #1 cover glass using Permount Histological Mounting Media (Fisher Scientific). Two slides mounted with 5 m sections were cut for each animal. One slide was processed for H&E staining and one for Periodic Acid Schiff (PAS) staining. The H&E and PAS were used for pathological scoring of the hearts. Picrosirius Red F3BA stained slides were used to quantify interstitial collagen with a Videometric 150 Image Analysis System (Oncor Inc., Gaitherburg, Md.). […] Garden City, N.Y.) attached to a Nikon Optiphot microscope (Nikon Inc.). A Toshiba 3 CCD Color Video Camera (Model#[…] Corp. Japan) relayed the images in RGB format from the microscope to a 386 computer with a […] video board. The […] video board/[…] software application (Oncor Inc.) converted RGB images to HIS (Hue, Intensity, Saturation) format for display and analysis on a Sony Trinitron Color Video Monitor (Model#PVM-1342Q, Sony Corp, Tokyo, Japan) at a magnification of 305×. […] The […] application then measured only pixels which fell into thresholding limits. The system was calibrated with a micrometer scale (EM Sciences, FT. Washington, Pa. 19034), which allowed data to be expressed in mm^2 or m^2."}, "aldosterone infused rats": {"system": "aldosterone infused rats", "test": "Assay B aldosterone infusion model: systolic blood pressure by radio-telemetry", "settings": "saline-drinking, uni-nephrectomized Sprague Dawley rats, eplerenone 100 mpk p.o.", "description": "Assay B: In vivo Aldosterone Infusion Model Male Sprague Dawley rats (n=39; BW=250 g) […] Uni-nephrectomy performed during implantation of mini-pumps 2. Aldosterone ([…], sc via aizet minipump) 2. […] 1. […] SBP measured by radio-telemetry probes inserted in the abdominal aorta Sacrifice after 4 weeks."}, "[1]": {"system": "aldosterone + salt treated rats", "test": "Assay C further aldosterone infusion study: body weight, ventricle weights, tibia length (myocardial hypertrophy)", "settings": "for Ventricular weights and ventricular weight to tibia length ratios (hypertrophy): 7, 14, 30 days", "excerpt": "Assay C: Further in vivo Aldosterone Infusion Study The procedure of Assay B was expanded upon in a further study. […] Myocardial tissue from animals in each treatment group was examined after 7, 14, or 30 days of treatment. […] Lesions were preceded by the expression and progressive upregulation of proinflammatory molecules. […] Male Sprague-Dawley rats, weighing 230 to 250 g, (Harlan Sprague-Dawley Industries, Indianapolis, Ind.) were housed in a room 12-hours light/12-hours dark daily cycle at an ambient temperature of 22±1° C. (n=96). Animals were allowed one week to adjust after arrival and had free access to TEKLAD 22/5 rodent diet (Harlan TEKLAD, Madison, Wis.) and tap water until the initiation of the experiment. Prior to surgery the animals were individually weighed and placed in one of the following groups: […] Potassium chloride supplementation was added to the saline solution in order to prevent the potential hypokalemia associated with aldosterone excess. […] Louis, Mo.) was inserted subcutaneously at the nape of the neck. Aldosterone was administered at a dose of […]. […] Animals were sacrificed from each group (n=8-13) after 7, 14, or 30 days of treatment. Animals to be sacrificed after 7 or 14 days of treatment were uninephrectomized and implanted with an Alzet minipump. Animals treated for 30 days were uninephrectomized, fitted for Alzet minipumps, and implanted with radio telemetry units (model#TA11PA-C40, Data Sciences Inc., St. Paul, Minn.) according to the following procedure. […] The surgery site was clipped, scrubbed with nolvasan, and sprayed with betadine. A rostral-caudal incision was made through the skin from the base of the rib cage to the pubic region using a #11 scalpel blade. A second incision was made through the muscles of the abdominal wall to expose the peritoneal cavity. […] Organs were carefully displaced with tissue retractors in order to expose the abdominal aorta. A 1.5 cm segment just rostral to the bifurcation of the abdominal aorta into the iliac arteries was cleared of excessive connective tissue and 4-0 silk was used to make an anchor adjacent to the aorta. A microvascular clip was then placed at both ends of the cleaned region to stop excessive blood flow. Using a bent, 21 gauge needle, the abdominal aorta was penetrated. The cannula of the radio telemetry unit was inserted and stabilized in the aorta using the 4-0 silk anchor. Organs were repositioned and the telemetry unit was placed over the organs. Using a non-interrupted suture pattern with 4-0 silk, the abdominal wall was closed, and the skin was subsequently closed using a 4-0 silk in an interrupted suture pattern. […] Post-operative care included monitoring the animals on a heating pad during recovery from anesthesia until sternal recumbency was reestablished. At the cessation of each experimental time point, the animals were anesthetized with pentobarbital (65 mg/kg i.p., Sigma Chemical, St. Louis Mo.) and weighed with a Mettler PM6000 balance (Mettler-Toledo, Inc., Hightstown, N.J.). The abdominal cavity was opened to expose the abdominal aorta. A 16-gauge needle was inserted into the abdominal aorta and the animal was exsanguinated into a 12 cc syringe. The blood sample was transferred immediately into glass serum collection tubes (Terumo Medical Corp., Elkton, Md.) for drug level analysis. The samples were placed on wet ice until sample collection was complete and centrifuged for 15 min at 3000 rev/min at 4° C. Following exsanguination, hearts and kidneys were isolated, removed, rinsed in cold phosphate-buffered saline, and blotted dry."}, "[2]": {"settings": "mean ± SEM after 30 days of treatment, eplerenone 100 mg/kg/day"}, "[3]": {"settings": "group Mean row of Table 9.11, 7 days of treatment"}, "[4]": {"settings": "individual rats, 7 days of treatment, eplerenone 100 mg/kg/day, listed as Aldosterone + salt"}}, "note": "Where “and” joins values, the source holds several entries; their conditions need not be identical. Identical values can stand only once. Entries after “also recorded” stand apart in the source; their conditions may differ."}
{"compound": "COC(=O)[C@@H]1CC2=CC(=O)CC[C@]2(C)[C@@]23O[C@@H]2C[C@@]2(C)[C@@H](CC[C@@]24CCC(=O)O4)[C@H]13", "note": "[eplerenone, Pregn-4-ene-7,21-dicarboxylic acid, 9,11-epoxy-17-hydroxy-3-oxo-, γ-lactone, methyl ester, (7α, 11α, 17β) -]", "values": [{"measurement": "Collagen Volume Fraction (%), Mean", "setting": "interstitial collagen; 14 days of treatment", "result": 4.5, "unit": "%"}, {"measurement": "Collagen Volume Fraction (%), Mean", "setting": "interstitial collagen; 30 days of treatment", "result": 6.2, "unit": "%"}, {"measurement": "Systolic Blood Pressure", "setting": "aldosterone infused rats", "result": "significantly reduced, but did not normalize blood pressure; also recorded: depression of this elevation"}, {"measurement": "Ventricular weights and ventricular weight to tibia length ratios (hypertrophy)", "setting": "[1]; eplerenone 100 mg/kg/day", "result": "did not impact absolute ventricular weights or ventricular weight to tibia length ratios"}, {"measurement": "Right Ventricle Weight/Tibia Length", "setting": "[1]; Table 9.13, 30-day protocol, eplerenone 100 mg/kg/day, individual rats, listed as Eplerenone + aldosterone + salt", "result": 50, "unit": "mg/cm"}, {"measurement": "Decrease in body weight induced by aldosterone+salt", "setting": "[1]; day 30, eplerenone 100 mg/kg/day", "result": "significantly attenuated"}, {"measurement": "Final Body Weight", "setting": "[1]; individual rats, 7 days of treatment, eplerenone 100 mg/kg/day, listed as Eplerenone + aldosterone + salt", "result": "306 g and 295 g (2×) and 277 g and 276 g"}, {"measurement": "Left Ventricle Weight/Tibia Length", "setting": "[1]; [2]", "result": "240 ± 9", "unit": "mg/cm"}, {"measurement": "Right Ventricle Weight/Tibia Length", "setting": "[1]; [2]", "result": "51 ± 2", "unit": "mg/cm"}]}
{"compound": "C[C@]12CCC(=O)C=C1CC[C@@H]1[C@@H]2[C@@H](O)C[C@]2(C=O)[C@@H](C(=O)CO)CC[C@@H]12", "note": "[aldosterone]", "values": [{"measurement": "Interstitial Collagen Volume Fraction", "setting": "interstitial collagen; group Mean", "result": 5.6, "unit": "%"}, {"measurement": "Interstitial Collagen Volume Fraction", "setting": "interstitial collagen; individual rats, listed as Aldosterone + salt", "result": "3.2% and 6.5% (2×) and 6.1% and 6.9% and 4.4% and 3.1%"}, {"measurement": "Collagen Volume Fraction (%), Mean", "setting": "interstitial collagen; 14 days of treatment", "result": 5.1, "unit": "%"}, {"measurement": "Collagen Volume Fraction (%), Mean", "setting": "interstitial collagen; 30 days of treatment", "result": 7.9, "unit": "%"}, {"measurement": "ICVF (interstitial collagen volume fraction)", "setting": "interstitial collagen; mean ± SEM after 7 days of treatment", "result": "5.6 ± 0.6", "unit": "%"}, {"measurement": "ICVF (interstitial collagen volume fraction)", "setting": "interstitial collagen; mean ± SEM after 14 days of treatment", "result": "5.1 ± 0.5", "unit": "%"}, {"measurement": "ICVF (interstitial collagen volume fraction)", "setting": "interstitial collagen; mean ± SEM after 30 days of treatment", "result": "7.9 ± 1.0", "unit": "%"}, {"measurement": "Systolic Blood Pressure", "setting": "aldosterone infused rats", "result": "Systolic blood pressure increased"}, {"measurement": "Ventricular weights and ventricular weight to tibia length ratios (hypertrophy)", "setting": "[1]; eplerenone 100 mg/kg/day", "result": "Significant left and right ventricular hypertrophy"}, {"measurement": "Final Body Weight", "setting": "[1]; [3]", "result": 277, "unit": "g"}, {"measurement": "Right Ventricle Weight/Tibia Length", "setting": "[1]; [3]", "result": 48, "unit": "mg/cm"}, {"measurement": "Left Ventricle Weight", "setting": "[1]; [4]", "result": 620, "unit": "mg"}, {"measurement": "Left Ventricle Weight/Tibia Length", "setting": "[1]; [4]", "result": 200, "unit": "mg/cm"}, {"measurement": "Right Ventricle Weight/Tibia Length", "setting": "[1]; [4]", "result": "48 mg/cm and 49 mg/cm and 57 mg/cm and 47 mg/cm (2×) and 44 mg/cm and 41 mg/cm and 51 mg/cm and 55 mg/cm"}, {"measurement": "Left Ventricle Weight", "setting": "[1]; [2]", "result": "910 ± 29", "unit": "mg"}, {"measurement": "Right Ventricle Weight", "setting": "[1]; [2]", "result": "192 ± 8", "unit": "mg"}, {"measurement": "Right Ventricle Weight/Tibia Length", "setting": "[1]; [2]", "result": "49 ± 2", "unit": "mg/cm"}, {"measurement": "Tibia Length", "setting": "[1]; [2]", "result": "3.9 ± 0.02", "unit": "cm"}]}
